Measured values: US9018383B2, “Acylamino-substituted cyclic carboxylic acid derivatives and their use as pharmaceuticals” (Sanofi, priority 2009, dated 2015)

Target: human Edg-2 receptor (Homo sapiens, UniProt Q92633)
Assay: Determination of Edg-2 receptor inhibition by FLIPR measurements (LPA-mediated calcium liberation)
Type: cell-based
Conditions: CHO cells overexpressing human Edg-2 receptor, LPA 100 nM, fluo-4 calcium fluorescence; read-out: Inhibitory concentrations IC50 for inhibition of the Edg-2 receptor
Protocol: A) Determination of Edg-2 Receptor Inhibition by Fluorescence Imaging Plate Reader (FLIPR) Measurements
The inhibition of the Edg-2 receptor (LPA1 receptor) by the compounds of the invention was quantified by the inhibitory effect on the LPA-mediated calcium liberation in a cell-based calcium fluorescence assay by use of Chinese hamster ovarian (CHO) cells in which the human Edg-2 receptor was stably overexpressed (Flp-In system, Invitrogen). […] Changes in intracellular calcium were determined by fluorescence measurement with the calcium-sensitive dye fluo-4 (Invitrogen) in a fluorescence imaging plate reader (FLIPR, […]).
CHO cells stably overexpressing the human Edg-2 receptor were seeded (40.000 per well) in black clear-bottomed poly-D-lysine-coated 96 well plates (Becton Dickinson, Biocoat cellware) approximately 18-24 h prior to the experiments. Cells were grown in an incubator at 37° C., 5% carbon dioxide and 95% humidity in cell culture media based on F-12 glutamax media (Gibco, #31765) supplemented with 1% (vol/vol) penicilline/streptomycine (PAN, #P06-07100), 10% (vol/vol) fetal calf serum (FCS, PAA, #A15-151) and hygromycin B (Invitrogen, #10687-010) 300 mg/l (final concentrations).
Prior to the FLIPR experiment, cells were loaded with fluo-4 acetoxymethyl ester (fluo-4 AM, Invitrogen, #F14202) for 60 min in an incubator at 37° C., 5% carbon dioxide and 95% humidity in dye-loading buffer consisting of Hanks' Balanced Salt Solution (HBSS, Invitrogen, #14065049) supplemented with fluo-4 AM at 2 μM (all data given for final concentration), Pluronic® F-127 0.05% (vol/vol) (Invitrogen, #P-3000 MP), HEPES 20 mM (Gibco, #15630), probenecid 2.5 mM (Sigma, #P-8761) and bovine serum albumin 0.05% (BSA, Sigma, #A-6003), adjusted to pH 7.5 with sodium hydroxide. During cell loading, fluo-4 AM is cleaved by intracellular esterase resulting in trapping of the dye fluo-4 within the cells. Loading was terminated by washing of the cells in a cell washer (Tecan Power washer) three times with the buffer specified afore but without fluo-4 AM and BSA. This latter buffer was also used as the buffer in the subsequent cell fluorescence measurements.
The dye-loaded and washed cells were pre-incubated for approximately 5 min with various concentrations of the test compound added as a solution in DMSO (0.3% vol/vol maximum final concentration of DMSO), or with DMSO in the respective concentration only (positive control). Subsequent addition of LPA (18:1, 1-oleoyl-sn-glycerol 3-phosphate; 100 nM final concentration) leads to liberation of intracellular calcium from internal stores resulting in a large transient increase of the fluo-4 fluorescence signal which was monitored over approximately 3 min. The percent inhibition caused by the test compound was determined from the maximum fluorescence response after LPA addition to cells pre-incubated with the compound as compared to the maximum fluorescence response after LPA addition to cells pre-incubated with DMSO only. All fluorescence values were corrected for the baseline fluorescence values obtained with cells which were pre-incubated with DMSO only and were not treated with LPA (baseline control). All measurements were performed in triplicate. From the percent inhibitions the inhibitory concentration IC50 was determined.

human Edg-2 receptor, sequence (Q92633 whole entry): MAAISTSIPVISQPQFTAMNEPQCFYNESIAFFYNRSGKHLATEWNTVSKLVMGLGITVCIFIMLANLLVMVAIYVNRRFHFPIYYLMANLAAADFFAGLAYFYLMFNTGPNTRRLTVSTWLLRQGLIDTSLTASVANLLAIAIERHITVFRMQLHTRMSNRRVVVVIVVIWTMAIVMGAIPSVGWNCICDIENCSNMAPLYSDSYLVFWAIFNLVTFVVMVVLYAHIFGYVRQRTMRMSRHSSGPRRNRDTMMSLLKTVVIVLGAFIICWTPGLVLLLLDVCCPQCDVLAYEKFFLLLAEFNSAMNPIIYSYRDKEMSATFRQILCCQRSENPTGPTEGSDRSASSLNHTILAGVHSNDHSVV

Compared with COc1ccc(C(=O)NC2(C(=O)O)CCCC2C)cc1OCCc1cccc(C)c1 (centres unmarked) [Example 49], COc1ccc(C(=O)NC2(C(=O)O)CCCC(O)CC2)cc1OCCc1cccc(C)c1 (centres unmarked) [Example 53, 4-Hydroxy-1-[4-methoxy-3-(2-m-tolyl-ethoxy)-benzoylamino]-cycloheptanecarboxylic acid] is lower in IC50: 1000 to 30000 nM for the first, 100 to 1000 nM for the second.

Compared with CCC1CCC(NC(=O)c2ccc(OC)c(OCCc3cccc(C)c3)c2)(C(=O)O)CC1 (centres unmarked) [Example 50], COc1ccc(C(=O)NC2(C(=O)O)CCC(CO)CC2)cc1OCCc1cccc(C)c1 (centres unmarked) [Example 58, 4-Hydroxymethyl-1-[4-methoxy-3-(2-m-tolyl-ethoxy)-benzoylamino]-cyclohexanecarboxylic acid] is higher in IC50: under 100 nM for the first, 1000 to 30000 nM for the second. The first is the more potent here.

COc1ccc(C(=O)NC2(C(=O)O)CCCC3(CC2)OCCO3)cc1OCCc1cccc(C)c1 (centres unmarked) [Example 51, 8-[4-Methoxy-3-(2-m-tolyl-ethoxy)-benzoylamino]-1,4-dioxa-spiro[4.6]undecane-8-carboxylic acid] and COc1ccc(C(=O)NC2(C(=O)O)CCC3(CC2)OCCO3)cc1OCCc1cccc(C)c1 [Example 54, 8-[4-Methoxy-3-(2-m-tolyl-ethoxy)-benzoylamino]-1,4-dioxa-spiro[4.5]decane-8-carboxylic acid] cannot be ordered by IC50: under 100 nM for the first, under 100 nM for the second.

First: COc1ccc(C(=O)NC2(C(=O)O)CCCC(=O)CC2)cc1OCCc1cccc(C)c1 (centres unmarked) [Example 52, 1-[4-Methoxy-3-(2-m-tolyl-ethoxy)-benzoylamino]-4-oxo-cycloheptanecarboxylic acid]
Second: COc1ccc(C(=O)NC2(C(=O)O)CCC(=O)CC2)cc1OCCc1cccc(C)c1 [Example 55, 1-[4-Methoxy-3-(2-m-tolyl-ethoxy)-benzoylamino]-4-oxo-cyclohexanecarboxylic acid]
The IC50 of the first is higher: 1000 to 30000 nM for the first, 100 to 1000 nM for the second.

C=C1CCC(NC(=O)c2ccc(OC)c(OCCc3cccc(C)c3)c2)(C(=O)O)CC1 [Example 56, 1-[4-Methoxy-3-(2-m-tolyl-ethoxy)-benzoylamino]-4-methylene-cyclohexanecarboxylic acid] and COc1ccc(C(=O)NC2(C(=O)O)CCC3(CC3)CC2)cc1OCCc1cccc(C)c1 [Example 57, 6-[4-Methoxy-3-(2-m-tolyl-ethoxy)-benzoylamino]-spiro[2.5]octane-6-carboxylic acid] cannot be ordered by IC50: under 100 nM for the first, under 100 nM for the second.

First: COc1ccc(C(=O)NC2(C(=O)O)CCC(CF)CC2)cc1OCCc1cccc(C)c1 (centres unmarked) [Example 59, 4-Fluoromethyl-1-[4-methoxy-3-(2-m-tolyl-ethoxy)-benzoylamino]-cyclohexanecarboxylic acid]
Second: Cc1cccc(CCOc2cc(C(=O)NC3(C(=O)O)CCCCCC3)ccc2Cl)c1 [Example 64, 1-[4-Chloro-3-(2-m-tolyl-ethoxy)-benzoylamino]-cycloheptanecarboxylic acid]
The IC50 of the first is lower: under 100 nM for the first, 100 to 1000 nM for the second.

First: CC(=O)c1ccc(C(=O)NC2(C(=O)O)CCCCCC2)cc1OCCc1cccc(C)c1 [Example 60, 1-[4-Acetyl-3-(2-m-tolyl-ethoxy)-benzoylamino]-cycloheptanecarboxylic acid]
Second: CCc1ccc(C(=O)NC2(C(=O)O)CCCCCC2)cc1OCCc1cccc(C)c1 [Example 62, 1-[4-Ethyl-3-(2-m-tolyl-ethoxy)-benzoylamino]-cycloheptanecarboxylic acid]
The IC50 of the first is higher: 100 to 1000 nM for the first, under 100 nM for the second.

First: Cc1cccc(CCOc2cc(C(=O)NC3(C(=O)O)CCCCCC3)ccc2C(C)O)c1 (centres unmarked) [Example 61, 1-[4-(1-Hydroxy-ethyl)-3-(2-m-tolyl-ethoxy)-benzoylamino]-cycloheptanecarboxylic acid]
Second: Cc1cccc(CCOc2cc(C(=O)NC3(C(=O)O)CCCCCC3)ccc2C(C)F)c1 (centres unmarked) [Example 63, 1-[4-(1-Fluoro-ethyl)-3-(2-m-tolyl-ethoxy)-benzoylamino]-cycloheptanecarboxylic acid]
The IC50 of the first is higher: 100 to 1000 nM for the first, under 100 nM for the second. The second is the more potent here.

Work on Cc1cccc(CCOc2cc(C(=O)NC3(C(=O)O)CCCCCC3)ccc2Br)c1 [Example 65, 1-[4-Bromo-3-(2-m-tolyl-ethoxy)-benzoylamino]-cycloheptanecarboxylic acid] yielded an IC50 of under 100 nM.
